This experiment concerns MTB. Type of experiment: cell-based, Mycobacterium tuberculosis.

The values below come from patent US20090281054A1, “COMPOSITIONS AND METHODS COMPRISING CAPURAMYCIN ANALOGUES” (priority 2008, published 2009).

Read-outs that look alike come from different tables or passages of the source.

For the compound `CCCCCCCCCC(=O)O[C@@H]1[C@H](OC)[C@@H]([C@@H](O[C@H]2OC(C(=O)N[C@H]3CCC[C@@H](C)NC3=O)=C[C@H](O)[C@@H]2O)C(N)=O)O[C@H]1n1ccc(=O)[nH]c1=O` [SQ641], the Frequency of mutation result is “zero” and the Resistant colonies result is “no colonies”. Further, the Frequency of mutation result (second experiment, 8 μg/ml SQ641, 1 μg/ml RIF) was “zero”.
